In publication PMC10062609 (PLOS ONE, 2023):

Biological target: Nicotinamide phosphoribosyltransferase (NAMPT) (Homo sapiens, UniProt P43490)
Test: biochemical

Nicotinamide phosphoribosyltransferase (NAMPT), sequence (P43490 whole entry): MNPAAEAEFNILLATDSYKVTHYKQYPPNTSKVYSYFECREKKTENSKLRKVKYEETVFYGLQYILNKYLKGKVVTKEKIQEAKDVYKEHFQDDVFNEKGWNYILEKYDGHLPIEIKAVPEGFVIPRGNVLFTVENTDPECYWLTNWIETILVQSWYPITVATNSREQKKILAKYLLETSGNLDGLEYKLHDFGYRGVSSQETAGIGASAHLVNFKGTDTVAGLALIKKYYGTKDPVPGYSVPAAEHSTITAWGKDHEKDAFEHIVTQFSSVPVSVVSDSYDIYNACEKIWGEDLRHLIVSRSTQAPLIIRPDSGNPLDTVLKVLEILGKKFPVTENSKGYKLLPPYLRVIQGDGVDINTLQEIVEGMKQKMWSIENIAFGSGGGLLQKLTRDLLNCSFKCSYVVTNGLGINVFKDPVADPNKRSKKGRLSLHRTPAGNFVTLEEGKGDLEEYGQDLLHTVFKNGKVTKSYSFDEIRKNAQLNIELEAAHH

C[C@@H]1O[C@@H](Oc2c(-c3cc(O)c(O)c(O)c3)oc3cc(O)cc(O)c3c2=O)[C@H](O)[C@H](O)[C@H]1O [compound 2, Myricitrin] showed an EC50 of 6.18 µM.
For O=c1cc2oc3cc(O)c(O)cc3c(-c3ccccc3O)c-2cc1O [compound 20, NSC9037], the EC50 was 3.58 µM.
